In ChEMBL document CHEMBL1153497, “Development of antitubercular compounds based on a 4-quinolylhydrazone scaffold. Further structure-activity relationship studies” (Bioorg Med Chem, 2009):
Converted amounts (≈) assume the structure as drawn. “And” between values parts separate entries of the source, which are not always exact repeats. Equal entries are not always repeated.

Assays:
[1] = system: Mycobacterium tuberculosis; experiment: Antitubercular activity against Mycobacterium tuberculosis H37Rv at 6.25 ug/mL by broth microdilution method; type: functional
[2] = system: Mycobacterium tuberculosis; experiment: Antitubercular activity against Mycobacterium tuberculosis H37Rv by microplate alamar blue assay; type: functional
[3] = Selectivity index, IC50 for african green monkey Vero cells to MIC for Mycobacterium tuberculosis H37Rv; type: functional
[4] = system: Vero; experiment: Cytotoxicity against african green monkey Vero cells after 72 hrs by MTT assay; type: cell-based; conditions: Chlorocebus sabaeus
[5] = system: Mycobacterium tuberculosis; experiment: Antitubercular activity against Mycobacterium tuberculosis isolate UC0803 by microplate alamar blue assay; type: functional
[6] = system: Mycobacterium tuberculosis; experiment: Antitubercular activity against Mycobacterium tuberculosis isolate UC0804 by microplate alamar blue assay; type: functional
[7] = system: Mycobacterium tuberculosis; experiment: Antitubercular activity against Mycobacterium tuberculosis isolate UC0802 by microplate alamar blue assay; type: functional
[8] = system: Mycobacterium tuberculosis; experiment: Antitubercular activity against Mycobacterium tuberculosis isolate UC0801 by microplate alamar blue assay; type: functional
[9] = system: Vero; experiment: Cytotoxicity against african green monkey Vero cells at > 2.5 ug/mL after 72 hrs by MTT assay; type: cell-based; conditions: Chlorocebus sabaeus
[10] = system: Mycobacterium tuberculosis; experiment: Antitubercular activity against Mycobacterium tuberculosis H37Rv assessed as CFU treated on day 7 measured after 14 days; type: functional, organism-based

Structure (SMILES) | inhibition at 6.25 µg/mL [1] | MIC [2] | also measured
COc1ccc(/C=N/Nc2cc(C)nc3cc(OC)ccc23)cc1 | 99% | 19.5 µM | 
COc1ccc2c(N/N=C/c3ccc(N(C)C)cc3)ccnc2c1 | 100% | 4.9 µM | Selectivity Index [3]: 0.17; IC50 [4]: 0.26 µg/mL (≈ 0.811 µM)
Cc1cc(N/N=C/c2cccc(O)c2)c2cc3c(cc2n1)OCO3 | 100% |  | 
COc1ccc2c(N/N=C/c3ccc4ccccc4n3)cc(C)nc2c1 | 100% | 4.6 µM | Selectivity Index [3]: 0.08; IC50 [4]: 0.12 µg/mL (≈ 0.35 µM)
CCOc1ccc2c(N/N=C/c3ccncc3)ccnc2c1 | 26% |  | 
COc1ccc(/C=N/Nc2ccnc3cc4c(cc23)OCO4)cc1 | 100% | 4.8 µM | 
COc1ccc2c(N/N=C/c3ccnc4ccccc34)cc(C)nc2c1 | 100% | 4.6 µM | 
COc1ccc(/C=N/Nc2cc(C)nc3cc4c(cc23)OCO4)cc1 | 100% | 9.3 µM | 
COc1ccc2nccc(N/N=C/C3CCCCC3)c2c1 | 99% | 11.1 µM | Selectivity Index [3]: 3.44; IC50 [4]: 5.03 µg/mL (≈ 17.8 µM)
COc1cccc2c(N/N=C/c3cccc4ccccc34)ccnc12 | 100% |  | 
Cc1cc(N/N=C/c2ccc(F)cc2)c2cc3c(cc2n1)OCO3 | 100% | 19.3 µM | 
COc1ccc2c(/C=N/Nc3ccnc4cc(OC)ccc34)ccnc2c1 | 100% | 2.2 µM | 
COc1ccc2c(N/N=C/c3ccc(O)cc3)ccnc2c1 | 100% | 5.3 µM | Selectivity Index [3]: 2.53; IC50 [4]: 3.66 µg/mL (≈ 12.5 µM)
COc1ccc2nccc(N/N=C/c3ccc4c(c3)OCO4)c2c1 | 100% | 2.4 µM | 
COc1ccc2cc(/C=N/Nc3cc(C)nc4cc5c(cc34)OCO5)ccc2c1 | 100% |  | 
COc1cccc2c(N/N=C/c3ccnc4ccccc34)cc(C)nc12 | 98% | 9.1 µM | 
COc1ccc2nccc(N/N=C/c3ccc(N(C)C)cc3)c2c1 | 100% | 19.5 µM | 
Cc1cc(N/N=C/c2ccc(O)cc2)c2cc3c(cc2n1)OCO3 | 100% |  | 
COc1ccc(/C=N/Nc2cc(C)nc3cc4c(cc23)OCO4)cc1OC | 100% |  | 
COc1cccc2c(N/N=C/c3ccc4c(c3)OCO4)ccnc12 | 31% |  | 

Structure (SMILES) | inhibition at 6.25 µg/mL [1] | MIC [2] | also measured
COc1cccc2c(N/N=C/c3ccccc3)ccnc12 | 99% | 11.3 µM | 
NNC(=O)c1ccncc1 [ISONIAZID] |  | 0.36 µM and 0.05 µg/mL | MIC [5]: 0.05 µg/mL (≈ 0.365 µM); MIC [6]: 0.05 µg/mL (≈ 0.365 µM); MIC [7]: 0.25 µg/mL (≈ 1.82 µM); MIC [8]: 0.05 µg/mL (≈ 0.365 µM)
Cc1cc(N/N=C/c2ncc[nH]2)c2cc3c(cc2n1)OCO3 | 100% | 5.3 µg/mL | Selectivity Index [3]: >66; IC50 [4]: > 100 µg/mL
COc1ccc2c(N/N=C/c3ccc4ccccc4n3)ccnc2c1 | 99% | 9.5 µM | 
CCOc1ccc2c(N/N=C/c3ccncc3)cc(C)nc2c1 | 78% |  | 
COc1ccc2c(N/N=C/c3ccc4c(c3)OCO4)ccnc2c1 | 100% | 9.7 µM | 
COc1ccc2nc(C)cc(N/N=C/c3ccc(N(C)C)cc3)c2c1 | 100% | 9.4 µM | 
COc1ccc(/C=N/Nc2cc(C)nc3cc4c(cc23)OCO4)c2ccccc12 | 100% | 4 µM | Selectivity Index [3]: 0.15; IC50 [4]: 0.24 µg/mL (≈ 0.623 µM)
Cc1cc(N/N=C/C2CCCCC2)c2cc3c(cc2n1)OCO3 | 9% |  | 
Cc1cc(N/N=C/c2ccc3c(c2)OCO3)c2cc3c(cc2n1)OCO3 | 100% | 4.5 µM | Selectivity Index [3]: 0.14; IC50 [4]: 0.22 µg/mL (≈ 0.63 µM)
Cc1cc(N/N=C/c2ccnc3ccccc23)c2cc3c(cc2n1)OCO3 | 100% |  | 
CCN(CC)c1ccc(/C=N/Nc2cc(C)nc3cc4c(cc23)OCO4)cc1 | 100% | 8.3 µM | 
COc1ccc2c(N/N=C/c3ccnc4ccccc34)ccnc2c1 | 100% | 9.5 µM | 
COc1cccc2c(N/N=C/c3ccc4ccccc4n3)ccnc12 | 99% | 4.8 µM | Selectivity Index [3]: 1.08; IC50 [4]: 1.68 µg/mL (≈ 5.12 µM)
Cc1cc(N/N=C/c2ccc[nH]2)c2cc3c(cc2n1)OCO3 | 100% | 10.6 µM | 
C(=N\Nc1ccnc2cc3c(cc12)OCO3)/C1CCCCC1 | 74% |  | 
CCOc1ccc2c(N/N=C/c3ccc4c(c3)OCO4)ccnc2c1 | 48% |  | 
COc1cccc(/C=N/Nc2cc(C)nc3cc4c(cc23)OCO4)c1 | 100% | 9.3 µM | 
CCOc1ccc2c(N/N=C/c3ccc(OC)cc3)cc(C)nc2c1 | 20% |  | 
COc1ccc2nc(C)cc(N/N=C/c3ccc4c(c3)OCO4)c2c1 | 100% | 4.8 µM | 

Structure (SMILES) | inhibition at 6.25 µg/mL [1] | MIC [2] | also measured
COc1ccc2c(N/N=C/c3cccc(O)c3)ccnc2c1 | 100% | 2.7 µM | Selectivity Index [3]: 1.59; IC50 [4]: 1.09 µg/mL (≈ 3.72 µM)
COc1ccc(/C=N/Nc2ccnc3cc(OC)ccc23)cc1 | 100% | 9.8 µM | 
CO[C@H]1/C=C/O[C@@]2(C)Oc3c(C)c(O)c4c(O)c(c(/C=N/N5CCN(C)CC5)c(O)c4c3C2=O)NC(=O)/C(C)=C\C=C\[C@H](C)[C@H](O)[C@@H](C)[C@@H](O)[C@@H](C)[C@H](OC(C)=O)[C@@H]1C [RIFAMPIN] |  | 0.037 µM | 
Cc1cc(N/N=C/c2ccc3ccccc3c2)c2cc3c(cc2n1)OCO3 | 100% |  | 
COc1ccc(/C=N/Nc2cc(C)nc3ccc(OC)cc23)cc1 | 100% | 4.8 µM | 
COc1ccc(/C=N/Nc2ccnc3ccc(OC)cc23)cc1 | 100% | 10.2 µM | 
COc1cccc2c(N/N=C/c3cccc4ccccc34)cc(C)nc12 | 99% | 9.3 µM | 
COc1ccc2c(N/N=C/c3ccc[nH]3)ccnc2c1 | 99% | 11.8 µM | 
COc1cccc2c(N/N=C/c3ccc4c(c3)OCO4)cc(C)nc12 | 95% |  | 
CCOc1ccc2c(N/N=C/c3ccc(OC)cc3)ccnc2c1 | 100% | 9.7 µM | 
COc1ccc2ccccc2c1/C=N/Nc1cc(C)nc2cc3c(cc12)OCO3 | 100% |  | 
COc1ccc2c(N/N=C/c3ccc4ccccc4c3)ccnc2c1 | 100% | 0.6 µM | Selectivity Index [3]: 2.27; IC50 [4]: 0.454 µg/mL (≈ 1.39 µM)
COc1cccc2c(N/N=C/c3ccc4ccccc4n3)cc(C)nc12 | 100% | 4.7 µM | Selectivity Index [3]: 1.99; IC50 [4]: 3.11 µg/mL (≈ 9.08 µM)
COc1cccc2c(N/N=C/c3ccc(N(C)C)cc3)ccnc12 | 100% | 19.5 µM | 
Cc1cc(N/N=C/c2ccncc2)c2cc3c(cc2n1)OCO3 | 87% |  | 
COc1ccc2cc(/C=N/Nc3ccnc4cc(OC)ccc34)ccc2c1 | 100% | 0.6 µM | Selectivity Index [3]: 1.05; IC50 [4]: 0.211 µg/mL (≈ 0.59 µM)
Cc1cc(N/N=C/c2ccccc2)c2cc3c(cc2n1)OCO3 | 100% | 2.6 µM and 0.5 µg/mL | MIC [5]: 0.25 µg/mL (≈ 0.819 µM); MIC [6]: 0.12 µg/mL (≈ 0.393 µM); Activity [9]: Toxic; MIC [7]: 1 µg/mL (≈ 3.28 µM); Activity [10]: Dose-dependent effect; MIC [8]: 0.12 µg/mL (≈ 0.393 µM)
Cc1cc(N/N=C/c2ccccn2)c2cc3c(cc2n1)OCO3 | 74% |  | 
CCOc1ccc2c(N/N=C/c3ccc4c(c3)OCO4)cc(C)nc2c1 | 98% | 9 µM | 
COc1ccc2c(N/N=C/c3ccccc3)ccnc2c1 | 100% | 16.4 µM | 
